According to ChEMBL document CHEMBL1139274, “Synthesis and evaluation of electron-rich curcumin analogues” (Bioorg Med Chem, 2009):

Columns and labels:
[1] = tested on: MCF7; test: Antiproliferative activity against human MCF7 cells after 72 hrs by MTS-PMS assay; format: functional, cell-based; settings: MCF7, 72 h
[2] = tested on: SK-BR-3; test: Antiproliferative activity against human SKBR3 cells after 72 hrs by MTS-PMS assay; format: functional, cell-based; settings: SK-BR-3, 72 h

| IC50 [1] [µM] | IC50 [2] [µM] | SMILES |
| --- | --- | --- |
| 39.9 | 52.6 | COc1ccc(/C=C/c2n[nH]c(/C=C/c3ccc(OC)c(OC)c3)c2/C=C/C(N)=O)cc1OC |
| 5.35 | 9.83 | COc1ccc(/C=C/C(=O)C(/C=C/C(N)=O)C(=O)/C=C/c2ccc(OC)c(OC)c2)cc1OC |
| 1.28 | 1.96 | CCOC(=O)/C=C/C(C(=O)/C=C/c1ccc(OC)c(OC)c1)C(=O)/C=C/c1ccc(OC)c(OC)c1 |
| 1.09 | 1.02 | COc1ccc(/C=C/C(=O)C(C)C(=O)/C=C/c2ccc(OC)c(OC)c2)cc1OC |
| 8.16 | > 100 | COc1ccc(/C=C/c2n[nH]c(/C=C/c3ccc(OC)c(OC)c3)c2C)cc1OC |
| 0.512 | 0.564 | COC(=O)/C=C/C(C(=O)/C=C/c1ccc(OC)c(OC)c1)C(=O)/C=C/c1ccc(OC)c(OC)c1 |
| 10.1 | 11.7 | CCOC(=O)CCc1c(/C=C/c2ccc(OC)c(OC)c2)n[nH]c1/C=C/c1ccc(OC)c(OC)c1 |
| 12.7 | 1.58 | COc1ccc(/C=C/c2cc(/C=C/c3ccc(OC)c(OC)c3)[nH]n2)cc1OC |
| > 100 | > 100 | CCOC(=O)CCC(C(=O)/C=C/c1ccc(OC)c(OC)c1)C(=O)/C=C/c1ccc(OC)c(OC)c1 |
| 1.76 | 4 | COc1cc(/C=C/c2cc(/C=C/c3ccc(O)c(OC)c3)on2)ccc1O |
| 49.5 | > 100 | COC(=O)/C=C/c1c(/C=C/c2ccc(OC)c(OC)c2)n[nH]c1/C=C/c1ccc(OC)c(OC)c1 |
| 55.7 | 42.5 | COc1ccc(/C=C/c2noc(/C=C/c3ccc(OC)c(OC)c3)c2C)cc1OC |
| > 100 | > 100 | CCOC(=O)CCc1c(/C=C/c2ccc(OC)c(OC)c2)noc1/C=C/c1ccc(OC)c(OC)c1 |
| 1.96 | 4.38 | CCOC(=O)CCC(C(=O)/C=C/c1ccc(O)c(OC)c1)C(=O)/C=C/c1ccc(O)c(OC)c1 |
| > 100 | > 100 | COc1ccc(/C=C/c2n[nH]c(/C=C/c3ccc(OC)c(OC)c3)c2/C=C/CO)cc1OC |
| 5.58 | 2.11 | COc1cc(/C=C/C(=O)CC(=O)/C=C/c2ccc(O)c(OC)c2)ccc1O [CURCUMIN] |
| 0.796 | 1.24 | COc1ccc(/C=C/C(=O)C(/C=C/CO)C(=O)/C=C/c2ccc(OC)c(OC)c2)cc1OC |
| 11.4 | 5.99 | CCOc1ccc(/C=C/c2n[nH]c(/C=C/c3ccc(OCC)c(OC)c3)c2/C=C/C(=O)OC)cc1OC |
| 13.2 | 13.9 | CCOC(=O)CCc1c(/C=C/c2ccc(O)c(OC)c2)noc1/C=C/c1ccc(O)c(OC)c1 |
| 6.01 | 5.6 | CCOC(=O)CCc1c(/C=C/c2ccc(O)c(OC)c2)n[nH]c1/C=C/c1ccc(O)c(OC)c1 |
| 4.19 | 0.258 | COc1cc(/C=C/c2cc(/C=C/c3ccc(O)c(OC)c3)[nH]n2)ccc1O [CURCUMIN PYRAZOLE] |
| 59.5 | > 100 | COc1ccc(/C=C/c2cc(/C=C/c3ccc(OC)c(OC)c3)on2)cc1OC |

| SMILES | IC50 [1] [µM] | IC50 [2] [µM] |
| --- | --- | --- |
| COc1ccc(/C=C/C(=O)CC(=O)/C=C/c2ccc(OC)c(OC)c2)cc1OC [TETRAMETHOXYCURCUMIN] | 1.07 | 0.955 |
